Assay results published in patent publication US8802711B2, “TRPV1 antagonists” (AbbVie Inc., priority 2011, dated 2014).
Read-outs that look alike come from different tables or passages of the source.

How the values were obtained:
[1] = target: T1, human TRPV1 receptor (hTRPV1) (Homo sapiens (Human), UniProt Q8NER1); assay: Acid activation assay (pH 5.0, FLIPR intracellular Ca2+); format: cell-based; conditions: 37.5 μM antagonist, percentage of the maximal pH 5.0-induced response remaining, read-out: hTRPV1 H+ (max % remain)
T1 sequence (Q8NER1 whole entry): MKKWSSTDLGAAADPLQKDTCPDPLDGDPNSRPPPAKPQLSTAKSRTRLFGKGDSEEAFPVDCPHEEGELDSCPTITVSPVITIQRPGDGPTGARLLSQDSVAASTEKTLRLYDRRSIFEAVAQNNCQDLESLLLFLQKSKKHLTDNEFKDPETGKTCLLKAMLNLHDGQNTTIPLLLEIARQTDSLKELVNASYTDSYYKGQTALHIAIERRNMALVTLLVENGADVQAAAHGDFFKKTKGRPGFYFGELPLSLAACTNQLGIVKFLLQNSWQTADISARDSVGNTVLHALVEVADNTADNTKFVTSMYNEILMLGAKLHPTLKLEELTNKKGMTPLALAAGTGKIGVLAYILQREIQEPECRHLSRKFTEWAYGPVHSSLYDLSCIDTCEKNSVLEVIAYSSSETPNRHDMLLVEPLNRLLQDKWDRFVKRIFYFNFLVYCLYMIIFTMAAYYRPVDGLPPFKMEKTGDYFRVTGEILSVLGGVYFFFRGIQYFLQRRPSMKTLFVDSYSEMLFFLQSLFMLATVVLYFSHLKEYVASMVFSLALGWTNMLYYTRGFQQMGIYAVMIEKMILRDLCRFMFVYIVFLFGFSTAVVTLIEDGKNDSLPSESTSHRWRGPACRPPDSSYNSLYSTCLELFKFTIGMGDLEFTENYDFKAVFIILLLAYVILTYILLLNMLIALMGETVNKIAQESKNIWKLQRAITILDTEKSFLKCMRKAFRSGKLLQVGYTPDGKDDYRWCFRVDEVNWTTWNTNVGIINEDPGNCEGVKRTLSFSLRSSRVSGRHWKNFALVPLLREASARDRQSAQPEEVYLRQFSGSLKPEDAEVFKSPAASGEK
Method in brief: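 Antagonism of acid-evoked Ca2+ influx measured by FLIPR Calcium-4 fluorescence after a pH 5.0 DPBS/MES stimulus, with compounds preincubated 3 min over 12 half-log concentrations. Cells: stable hTRPV1-expressing 1321N1 line, dye-loaded 90–120 min in the dark at 25 °C.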

[2] = target: T1, human TRPV1 receptor (hTRPV1); assay: Capsaicin activation assay (FLIPR intracellular Ca2+); format: cell-based; conditions: inhibition of capsaicin-induced intracellular Ca2+ increase, read-out: hTRPV1 cap IC50
Method in brief: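 Antagonism measured as [Ca2+]i fluorescence on FLIPR Tetra: compounds given 3 min ahead of capsaicin, added as 200 nM (4×), to dye-loaded hTRPV1-HEK293 cells. Response taken as baseline-subtracted peak, normalized to the 50 nM capsaicin control; 12-point one-third-log titrations.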

[3] = system: Sprague-Dawley rats; assay: Rat acute capsaicin-induced flinching behavior; format: in vivo; conditions: 100 μmol/kg p.o., percent reduction in number of flinching behaviors
Source text: (§1) Adult male Sprague-Dawley rats (250-300 g body weight, Charles River Laboratories, Portage, Mich.) were used. Animal handling and experimental protocols were approved by the Institutional Animal Care and Use Committee (IACUC) at Abbott Laboratories. For all surgical procedures, animals were maintained under isoflurane anesthesia (4-5% to induce, 1-3% to maintain), and the incision sites were sterilized using a 10% povidone-iodine solution prior to and after surgeries.
Rats were placed in individual observation cages. […] One hour after administration of the test compound, 2.5 μg of capsaicin in a 10 μL solution of 10% ethanol/90% hydroxypropyl-β-cyclodextrin was injected subcutaneously into the dorsal aspect of the right hind paw. The observation cage was then suspended above mirrors in order to facilitate observation. […] The number of flinching behaviors of the injured paw was recorded during the five minute observation period (Gilchrist, H. D.; Allard, B. L.; Simone, D. A.; Enhanced withdrawal responses to heat and mechanical stimuli following intraplantar injection of capsaicin in rats. Pain, 1996, 67, 179-188). The percent reduction in the number of flinching behaviors produced with oral administration of representative compounds of the present invention relative to control-treated animals (% effect) is reported in Table 3.

[4] = system: Sprague-Dawley rats; assay: Rat tail immersion assay (noxious thermosensation); format: in vivo; conditions: rat, 100 μmol/kg oral, one hour post dosing, 55° C. water bath, relative to vehicle
Procedure: as §1
Compounds were tested for their effects on noxious thermosensation using the tail immersion assay. Testing was performed one hour following oral administration of 100 μmol/kg of the compound in 10% ethanol/20% Tween-80/70% PEG-400 (2 mL/kg). Morphine (6 mg/kg) was administered interperitoneally (i.p.) using saline (2 mL/kg) as the vehicle. For testing, a circulating water bath was heated to 55° C. Thirty to sixty minutes post dosing, the rats were handled for a few seconds to calm them down and then cupped with their back against the tester's hand at a slight angle with head facing away from the tester. With rat in one hand and a 0.01 second stopwatch in the other hand, the tail was quickly immersed 6-8 cm in the water bath or to a distance leaving 2-3 cm of tail out of water. The timer was started simultaneously. When the rat flinched or attempted withdrawal, timer was immediately stopped and the rat's tail was quickly removed from water bath. This response latency (in seconds) was recorded. Process was repeated 3 times with 3-4 minutes between readings and the average response latency was calculated.
For a given example, a percent increase in the average response latency (in seconds) for tail withdrawal relative to a vehicle control was determined. % increase=[(tc−tv)/tv]×100%
tc=response latency (in seconds) with oral dosing of compounds
tv=response latency (in seconds) with oral dosing of vehicle
The % increases in tail withdrawal latency relative to vehicle control are divided into the following categories: […]

[5] = system: Sprague-Dawley rats; assay: Sodium iodoacetate-induced knee joint osteoarthritic pain model; format: in vivo, rat; conditions: 10 mg/kg p.o., 1 hour after dosing, % return to normalcy of hind limb grip force
Source text: as §1
Unilateral knee joint osteoarthritis was induced in the rats by a single intra-articular (i.a.) injection of sodium iodoacetate (3 mg in 0.05 mL sterile isotonic saline) into the right knee joint cavity under light isoflurane anesthesia using a 26 G needle. […] Pain behavioral assessment of hind limb grip force was conducted by recording the maximum compressive force exerted on the hind limb strain gauge setup, in a commercially available grip force measurement system (Columbus Instruments, Columbus, Ohio), to elicit paw withdrawal. The grip force data was converted to a maximum hindlimb cumulative compressive force (CFmax) (gram force)/kg body weight for each animal. The analgesic effects of test compounds were determined 20 days following the i.a. injection of sodium iodoacetate. The vehicle control group for each compound being tested was assigned 0% whereas the age matched naïve group was assigned as being 100% (normal). The % effect for each dose group was then expressed as % return to normalcy compared to the naïve group. Test compounds were administered orally in 10% ethanol/20% Tween 80/70% polyethylene glycol-400 vehicle at a volume of 2 mL/kg. The assessment of the analgesic effects of test compounds was made 1 hour following oral administration. The assessment of the analgesic effects of test compounds can be made following a single dose or following repeated administration wherein the frequency of dosing is 1 to 2 times daily. The duration of such repeated daily dosing may last for any time greater than one day. A typical duration of repeated daily dosing is about 5 days to about 12 days.

[6] = Table 1, HEK293 cells expressing human TRPV1

Structure (SMILES)	remaining activity at 37.5 µM ([1]; Table 1) [%]	remaining activity at 37.5 µM ([1]; Table 2) [%]	IC50 [2, 6] [nM]	IC50 ([2]; Table 2) [nM]	% effect [3] [%]	% Increase in tail withdrawal latency [4]	% effect [5] [%]
Cn1c(=O)ccc2c(NC(=O)N[C@@H]3CC[C@H](c4ccccc4)C3)cccc21 [Example 51, 1-(1-methyl-2-oxo-1,2-dihydroquinolin-5-yl)-3-((1R,3S)-3-phenylcyclopentyl)urea]	56	56	13	13	30	−	
O=C(Nc1cccc2[nH]ncc12)N[C@@H]1CC[C@H](c2ccccc2F)C1 [Example 61, 1-[(1R,3S)-3-(2-fluorophenyl)cyclopentyl]-3-(1H-indazol-4-yl)urea]	44		32				34
O=C(Nc1cccc2[nH]ncc12)N[C@H]1CC[C@H](c2cccc(F)c2)C1 [Example 64, 1-[(1S,3S)-3-(3-fluorophenyl)cyclopentyl]-3-(1H-indazol-4-yl)urea]	25		29				48
